# In US20220332726A1, “NITROXIDE DERIVATIVE OF ROCK KINASE INHIBITOR” (VIVAVISION (SHANGHAI) LTD, priority 2020, published 2022):
# Target: ROCK2 (Homo sapiens, UniProt O75116)
# Experiment: ROCK2 kinase inhibitor activity test (HTRF)
# Assay type: biochemical
# Conditions: ROCK2 1 nM, substrate 500 nM, ATP 6 uM, 1.5 hours at room temperature, read-out: ROCK2 kinase inhibitor activities (IC50)
# Experimental: ROCK2 Kinase Inhibitor Activity Test
# 1) 4× ROCK2 reaction solution, 4×ATP reaction solution, 4× substrate solution, and 4× compound solution were prepared according to experimental requirements.
# 2) 2.5 μL of 4× kinase solution and 2.5 μL of diluted 4× test compound solutions with different concentration gradients were added to a 384-well plate. 2 replicate wells were provided for each concentration, and an enzyme solution blank control group and a negative control group (DMSO group) were provided at the same time. Centrifugation was performed at 1000 rpm for 1 minute, and the enzyme and the compounds were mixed. 2.5 μL of 4× substrate solution was added to the 384-well plate, centrifugation was performed at 1000 rpm for 1 minute, 2.5 μL of 4× ATP solution was added to the 384-well plate, centrifugation was performed at 1000 rpm for 1 minute to start the enzyme reaction, and incubation was performed at room temperature for 1.5 hours.
# The final concentration of each component of the ROCK2 reaction was: ROCK2: 1 nM, substrate: 500 nM, ATP: 6 uM, and the final concentration range of the test compounds was: 100 nM to 5 pM.
# 3) 4× Streptavidin-XL-665 detection solution was prepared according to experimental requirements.
# 4) After the enzyme reaction was completed, 5 ul of 4× Streptavidin-XL-665 detection solution was added to each well of the 384-well plate, and centrifugation was performed at 1000 rpm for 1 minute. 5 μL of 4×STK Antibody-cryptate detection antibody solution was added to each well of the 384-well plate, centrifugation was performed at 1000 rpm for 1 minute, and incubation was performed for 1 hour at room temperature.
# 5) After antibody incubation was completed, the signal value of each well was measured by the HTRF program on an Envision plate reader.
# 1) Taking the enzyme solution blank control group as 100% inhibition rate and the negative control group (DMSO group) as 0% inhibition rate, the percentage inhibition rate corresponding to each concentration of the test compound was calculated.
# 2) In the GraphPad Prism software, a nonlinear regression analysis was performed on the logarithm of the concentrations of the test compounds and the corresponding percentage inhibition rates to obtain the half-inhibitory concentrations (IC50) of the test compounds.
# The ROCK2 kinase inhibitor activities (IC50) of the compounds detected by this method are as follows: […]
# Sequence of ROCK2 (O75116 whole entry): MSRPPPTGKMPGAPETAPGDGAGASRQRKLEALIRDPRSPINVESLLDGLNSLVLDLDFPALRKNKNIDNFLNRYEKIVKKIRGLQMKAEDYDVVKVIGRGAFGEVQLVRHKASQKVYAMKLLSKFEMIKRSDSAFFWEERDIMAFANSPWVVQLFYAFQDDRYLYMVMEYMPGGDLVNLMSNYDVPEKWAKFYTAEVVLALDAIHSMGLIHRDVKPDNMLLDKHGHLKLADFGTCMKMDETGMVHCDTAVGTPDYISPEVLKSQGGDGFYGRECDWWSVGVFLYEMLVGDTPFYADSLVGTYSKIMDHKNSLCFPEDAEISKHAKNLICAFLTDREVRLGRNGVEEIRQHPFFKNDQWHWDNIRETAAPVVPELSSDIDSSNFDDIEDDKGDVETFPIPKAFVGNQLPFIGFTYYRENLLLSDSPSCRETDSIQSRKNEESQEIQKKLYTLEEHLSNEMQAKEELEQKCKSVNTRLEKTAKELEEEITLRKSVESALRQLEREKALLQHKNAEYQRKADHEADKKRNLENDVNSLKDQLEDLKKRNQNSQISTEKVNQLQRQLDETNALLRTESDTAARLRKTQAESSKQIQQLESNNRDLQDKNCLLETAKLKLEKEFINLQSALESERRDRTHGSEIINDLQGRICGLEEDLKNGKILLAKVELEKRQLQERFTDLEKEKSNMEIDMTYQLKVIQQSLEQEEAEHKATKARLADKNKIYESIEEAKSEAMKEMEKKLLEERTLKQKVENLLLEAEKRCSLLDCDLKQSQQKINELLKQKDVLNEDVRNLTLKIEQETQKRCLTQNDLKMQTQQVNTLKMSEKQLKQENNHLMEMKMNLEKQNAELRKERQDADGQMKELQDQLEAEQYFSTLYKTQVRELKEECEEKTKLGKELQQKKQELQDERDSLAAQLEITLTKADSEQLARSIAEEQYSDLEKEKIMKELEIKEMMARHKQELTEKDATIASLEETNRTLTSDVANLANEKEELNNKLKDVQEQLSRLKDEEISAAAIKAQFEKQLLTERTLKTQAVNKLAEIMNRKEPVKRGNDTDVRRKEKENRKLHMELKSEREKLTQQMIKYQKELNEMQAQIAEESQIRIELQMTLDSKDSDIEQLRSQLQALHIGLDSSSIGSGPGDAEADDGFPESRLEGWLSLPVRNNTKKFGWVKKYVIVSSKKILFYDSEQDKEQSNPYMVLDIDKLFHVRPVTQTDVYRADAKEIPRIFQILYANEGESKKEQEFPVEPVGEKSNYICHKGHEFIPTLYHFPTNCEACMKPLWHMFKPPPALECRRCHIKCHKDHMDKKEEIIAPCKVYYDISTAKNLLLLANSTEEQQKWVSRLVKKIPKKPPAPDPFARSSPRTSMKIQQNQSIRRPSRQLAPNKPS
row,IC50,Structure (SMILES)
1,0.5 nM,"NC[C@@H](C(=O)Nc1cc2ccncc2s1)c1ccc(CO[N+](=O)[O-])cc1 [Example 1, (S)-4-(3-amino-1-oxo-1-(thieno[2,3-c]pyridin-2-ylamino)prop-2-yl)benzyl nitrate]"
2,1.6 nM,"NC[C@@H](C(=O)Nc1cc2ccncc2s1)c1ccc(COC(=O)c2ccc(CO[N+](=O)[O-])cc2)cc1 [Example 22, (S)-4-(3-amino-1-oxo-1-(thieno[2,3-c]pyridin-2-ylamino)prop-2-yl)benzyl 4-((nitrooxy)methyl)benzoate]"
3,1.13 nM,"NC[C@@H](C(=O)Nc1cc2ccncc2s1)c1ccc(COC(=O)C2CC(CO[N+](=O)[O-])C2)cc1 (stereo partly drawn) [Example 23, (S)-4-(3-amino-1-oxy-1-(thieno[2,3-c]pyridin-2-ylamino)propan-2-yl)benzyl 3-((nitrooxy)methyl)cyclobutane-1-carboxylate]"
4,0.45 nM,"NC[C@@H](C(=O)Nc1cc2ccncc2s1)c1ccc(COC(=O)NCCO[N+](=O)[O-])cc1 [Example 24, (S)-4-(3-amino-1-oxy-1-(thieno[2,3-c]pyridin-2-ylamino)prop-2-yl)benzyl(2-(nitrooxy)ethyl)carbamate]"
5,1.78 nM,"NC[C@@H](C(=O)Nc1cc2ccncc2s1)c1ccc(COC(=O)[C@H]2C[C@H](O[N+](=O)[O-])C2)cc1 [Example 25, 4-((S)-3-amino-1-oxo-1-(thieno[2,3-c]pyridin-2-ylamino)propan-2-yl)benzyl (1r,3S)-3-(nitrooxy)cyclobutane-1-carboxylate]"
6,1.32 nM,"NC[C@@H](C(=O)Nc1cc2ccncc2s1)c1ccc(COC(=O)c2cccc(CCO[N+](=O)[O-])c2)cc1 [Example 28, (S)-4-(3-amino-1-oxy-1-(thieno[2,3-c]pyridin-2-ylamino)prop-2-yl)benzyl 3-(2-(nitrooxy)ethyl)benzoate]"
7,2.74 nM,"NC[C@@H](C(=O)Nc1cc2ccncc2s1)c1ccc(COC(=O)CC2(CO[N+](=O)[O-])CC2)cc1 [Example 29, (S)-4-(3-amino-1-oxy-1-(thieno[2,3-c]pyridin-2-ylamino)prop-2-yl)benzyl 2-(1-((nitrooxy)methyl)cyclopropyl acetate]"
8,16.5 nM,"CC(C)(CCCO[N+](=O)[O-])C(=O)OCc1ccc([C@@H](CN)C(=O)Nc2cc3ccncc3s2)cc1 [Example 30, (S)-4-(3-amino-1-oxy-1-(thieno[2,3-c]pyridin-2-ylamino)prop-2-yl)benzyl 2,2-dimethyl-5-(nitrooxy)valerate]"
9,1.58 nM,"NC[C@@H](C(=O)Nc1cc2ccncc2s1)c1ccc(COC(=O)CCCCCO[N+](=O)[O-])cc1 [Example 31, (S)-4-(3-amino-1-oxy-1-(thieno[2,3-c]pyridin-2-ylamino)propan-2-yl)benzyl 6-(nitrooxy)hexanoate]"
10,3.11 nM,"NC[C@@H](C(=O)Nc1cc2ccncc2s1)c1ccc(COC(=O)C2(CO[N+](=O)[O-])CC2)cc1 [Example 32, (S)-4-(3-amino-1-oxy-1-(thieno[2,3-c]pyridin-2-ylamino)propan-2-yl)benzyl 1-((nitrooxy)methyl)cyclopropane carboxylate]"
11,1.04 nM,"NC[C@@H](C(=O)Nc1cc2ccncc2s1)c1ccc(COC(=O)[C@H]2C[C@@H](CO[N+](=O)[O-])C2)cc1 [Example 34, (1S,3R)-4-((S)-3-amino-1-oxy-1-(thieno[2,3-c]pyridin-2-ylamino)propan-2-yl)benzyl 3-((nitrooxy)methyl)cyclobutane-1-carboxylate]"
12,6.5 nM,"NC[C@@H](C(=O)Nc1cc2ccncc2s1)c1ccc(COC(=O)[C@H]2C[C@H](CO[N+](=O)[O-])C2)cc1 [Example 35, (1R,3S)-4-((S)-3-amino-1-oxy-1-(thieno[2,3-c]pyridin-2-ylamino)propan-2-yl)benzyl 3-((nitrooxy)methyl)cyclobutane-1-carboxylate]"
13,19.7 nM,"NC[C@@H](C(=O)Nc1cc2ccncc2s1)c1ccc(COC(=O)C2CCC(CO[N+](=O)[O-])CC2)cc1 (stereo partly drawn) [Example 38, (1r,4S)-4-((S)-3-amino-1-oxy-1-(thieno[2,3-c]pyridin-2-ylamino)propan-2-yl)benzyl 4-((nitrooxy)methyl)cyclohexanecarboxylic acid]"
14,29.2 nM,NC[C@@H](C(=O)Nc1cc2ccncc2s1)c1ccc(COC(=O)[C@@H]2CCCN2CCO[N+](=O)[O-])cc1 [Example 39]

row,Structure (SMILES),IC50
1,"NCC(C(=O)Nc1cc2ccncc2s1)c1ccc(OCC(CO[N+](=O)[O-])O[N+](=O)[O-])cc1 (stereo not shown) [Example 7, 3-(4-(3-amino-1-oxo-1-(thieno[2,3-c]pyridin-2-ylamino)prop-2-yl)phenoxy)propane-1,2-dinitrate]",2.19 nM
2,"CC(CO[N+](=O)[O-])(CO[N+](=O)[O-])C(=O)OCc1ccc([C@@H](CN)C(=O)Nc2cc3ccncc3s2)cc1 [Example 26, (S)-4-(3-amino-1-oxo-1-(thieno[2,3-c]pyridin-2-ylamino)prop-2-yl)benzyl 2-methyl-3-(nitrooxy)-2-((nitrooxy)methyl)propionate]",9.9 nM
3,"NC[C@@H](C(=O)Nc1cc2cnccc2s1)c1ccc(COC(=O)CC[C@H](CO[N+](=O)[O-])O[N+](=O)[O-])cc1 [Example 33, 4-((S)-3-amino-1-oxy-1-(thieno[2,3-c]pyridin-2-ylamino)prop-2-yl)benzyl(R)-4,5-bis(nitrooxy)valeric acid]",1.18 nM
4,"NC[C@@H](C(=O)Nc1cc2ccncc2s1)c1ccc(COC(=O)C2CC(CO[N+](=O)[O-])(CO[N+](=O)[O-])C2)cc1 [Example 36, (S)-4-(3-amino-1-oxy-1-(thieno[2,3-c]pyridin-2-ylamino)prop-2-yl)benzyl 3,3-bis((nitrooxy)methyl)cyclobutane-1-carboxylate]",32.5 nM
5,"NC[C@@H](C(=O)Nc1cc2ccncc2s1)c1ccc(COC(=O)C2C[C@@H](O[N+](=O)[O-])[C@H](O[N+](=O)[O-])C2)cc1 [Example 37, (3R,4R)-4-((S)-3-amino-1-oxy-1-(thieno[2,3-c]pyridin-2-ylamino)propan-2-yl)benzyl 3,4-bis(nitrooxy)cyclopentane carboxylate]",1.43 nM
6,"CN(C)C[C@@H](C(=O)Nc1cc2ccncc2s1)c1ccc(COC(=O)C(C)(CO[N+](=O)[O-])CO[N+](=O)[O-])cc1 [Example 40, (S)-4-(3-(dimethylamino)-1-oxo-1-(thieno[2,3-c]pyridin-2-ylamino)propan-2-yl)benzyl 2-methyl-3-(nitrooxy)-2-((nitrooxy)methyl)propionate]",2.05 nM

# System: Phospho-Myosin Light Chain2 (Ser19)
# Experiment: Cell activity test: MLC2 (Ser19) phosphorylation in A7R5 cells (Western blot)
# Assay type: cell-based
# Conditions: starved 20 hours, compound treatment 60 minutes, MLC2 (Ser19) phosphorylation corrected with GAPDH, read-out: cell activities (IC50)
# Experimental: Example 43: Cell Activity Test
# 1) The A7R5 cells in the logarithmic growth phase were digested, 2E5 cells per well were inoculated in a 6-well plate and incubated overnight at 37° C. with 5% CO2, and the cell culture medium was replaced with a starvation medium containing 0.05% FBS after 24 hours. The cells were starved for 20 hours.
# 2) The starvation medium was removed, the cells were treated with the prepared compound concentration gradient for 60 minutes, VIP-5021 (10 uM) was set as the positive control, and the DMSO group was set as the negative control.
# 3) After the compound treatment, the compound solutions were aspirated, washed with PBS two times, 100 ul of cell lysate was added to each well, the cells were gently scraped with a cell scraper, and the cells were transferred to a centrifuge tube and lysed on ice for 60 minutes.
# 4) After the lysis, centrifugation was performed at 4° C. and 14000 rpm for 15 minutes, the lysate supernatant was collected, protein quantification was performed using the BCA method, the protein concentration was adjusted, the loading buffer was added according to proportion, and treatment was performed at 100° C. for 10 minutes to denature the protein.
# 5) An electrophoresis equipment was assembled, 20 ug of total protein was loaded per sample, the voltage was fixed at 125 V, and electrophoresis was performed for 90 minutes. After the electrophoresis was completed, the membrane transfer system was assembled with a fixed current of 300 mA and the membrane was transferred for 120 minutes. After the membrane transfer was completed, the PVDF membrane was removed and washed with PBS two times. A blocking solution was added to block at room temperature for 60 minutes. The blocking solution was removed, a solution containing the primary antibody (Phospho-Myosin Light Chain2 (Ser19)) (antibody dilution ratio 1:1000) was added, GAPDH was selected as internal control, and incubation was performed overnight at 4° C.
# 6) Washing was performed with PBST three times, HRP-antibody containing the corresponding species (secondary antibody dilution ratio 1:2000) was added, incubation was performed at room temperature for 60 minutes, and washing was performed with PBST three times. HRP chemiluminescence substrate was prepared, and dropwisely added on the PVDF membrane based on 0.1 mL per square centimeter to react for 30 seconds, and the chemiluminescence signal was collected with a gel imager (ChemiDoc XRS+(BIO-RAD)).
# 7) Each band was quantitatively analyzed using image J software, and the phosphorylated protein level of Phospho-Myosin Light Chain2 (Ser19) in each sample was corrected using GAPDH expression as internal reference.
# 1) Taking the MLC2 (Ser19) protein phosphorylation level of the highest concentration compound sample as 100% inhibition rate, and taking the MLC2 (Ser19) protein phosphorylation level of the negative control group (DMSO group) as 0% inhibition rate, the percentage inhibition rate corresponding to each concentration of the test compounds was calculated.
# 2) In the GraphPad Prism software, a nonlinear regression analysis was performed on the logarithm of the concentrations of the test compounds and the corresponding percentage inhibition rates to obtain the half-inhibitory concentrations (IC50) of the cell levels of the test compounds.
# The cell activities (IC50) of the compounds detected by this method are as follows: […]
row,Structure (SMILES),IC50
1,"NC[C@@H](C(=O)Nc1cc2ccncc2s1)c1ccc(CO[N+](=O)[O-])cc1 [Example 1, (S)-4-(3-amino-1-oxo-1-(thieno[2,3-c]pyridin-2-ylamino)prop-2-yl)benzyl nitrate]",53 nM
2,"NCC(C(=O)Nc1cc2ccncc2s1)c1ccc(OCC(CO[N+](=O)[O-])O[N+](=O)[O-])cc1 (stereo not shown) [Example 7, 3-(4-(3-amino-1-oxo-1-(thieno[2,3-c]pyridin-2-ylamino)prop-2-yl)phenoxy)propane-1,2-dinitrate]",8.8 nM
